# According to patent publication US5550212A, “Analogues of hGH-RH(1-29)NH2 having antagonistic activity” (The Administrators of the Tulane Educational Fund, priority 1993, dated 1996):
# Non-standard residues stand in square brackets, D forms with d. Residues, ends and D or L forms follow the SMILES beside them. No end group written: not given here. *: point of attachment. Phe(4-Cl) = N[C@@H](Cc1ccc(Cl)cc1)C(=O)O; Agmatine = N=C(N)NCCCCN*; Nle = CCCC[C@H](N)C(=O)O; Abu = CC[C@H](N)C(=O)O; X1 = O=C(CCBr)*
# Tests used:
# [1] = test system: hGH-RH(1-29)NH2 induced GH release; experiment: Superfused rat pituitary system: inhibition of hGH-RH(1-29)NH2 induced GH release; type: cell-based; details: for Inhibition of GH release (%) 0 min: 0 min response; for Inhibition of GH release (%) 30 min: 30 min response; for Inhibition of GH release (%) 60 min: 60 min response
# Protocol: Superfused Rat Pituitary System. The analogues were tested in vitro in a test described earlier (S. Vigh and A. V. Schally, Peptides 5:241-[…], 1984) with modification ([…] and […]. 90:2146-2149, 1993). Briefly, the cells are preincubated with peptides for 9 minutes (3 mL) at various concentrations. Immediately after the incubation, 1 nM hGH-RH(1-29)NH2 is administered for 3 minutes (1 mL) [0 minute response]. To check the duration of the antagonistic effect of the analogue, 1 nM hGH-RH(1-29)NH2 is applied 30, 60, 90, and 120 minutes later for 3 minutes [30, 60, 90, 120 min responses]. Net integral values of the GH responses are evaluated. GH responses are compared to and expressed as percent of the original GH response induced by 1 nM GH-RH(1-29)NH2. The effect of the new antagonists are compared to that of [Ac-[…] ]hGH-RH(1-29)NH2, the "Standard antagonist". Growth Hormone Radio-immunoassay. Rat GH levels in aliquots of undiluted and diluted superfusion samples were measured by double-antibody radioimmunoassay using materials supplied by the National Hormone and Pituitary Program, Baltimore, Md. The results of RIA were analyzed with a computer program developed in our institute (V. Csernus and A. V. Schally, Harwood Academic (Greenstein, B. C. ed., London, pp. 71-109, 1991), hereby incorporated by reference. Inter-assay variation was less than 15% and intra-assay variation was less than 10%.
# [2] = molecular target: T1, rat pituitary GH-RH receptors (Rattus norvegicus, UniProt Q02644); experiment: GH-RH binding assay, competitive binding on rat anterior pituitary membrane homogenates; details: for R.A. (relative affinity compared to the Standard antagonist): ratio of Ki values, Standard = 1
# T1 construct: from tissue; host or cells: rat anterior pituitary (male Sprague-Dawley), crude membranes
# T1 sequence (Q02644 23-464): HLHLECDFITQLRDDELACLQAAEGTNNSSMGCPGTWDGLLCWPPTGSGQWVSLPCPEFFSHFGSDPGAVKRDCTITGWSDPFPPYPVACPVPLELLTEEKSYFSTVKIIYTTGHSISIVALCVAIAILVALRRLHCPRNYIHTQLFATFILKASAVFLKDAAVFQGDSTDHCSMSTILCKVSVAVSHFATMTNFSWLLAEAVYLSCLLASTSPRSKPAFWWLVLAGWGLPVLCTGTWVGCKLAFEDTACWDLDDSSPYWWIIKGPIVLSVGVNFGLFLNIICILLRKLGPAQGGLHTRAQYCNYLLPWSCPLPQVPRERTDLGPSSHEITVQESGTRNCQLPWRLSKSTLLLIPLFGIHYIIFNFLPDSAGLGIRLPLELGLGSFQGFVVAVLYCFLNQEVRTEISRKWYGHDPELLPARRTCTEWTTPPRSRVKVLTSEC
# Protocol: GH-RH Binding Assay. A sensitive radioreceptor binding assay was developed to determine the binding characteristics of the antagonists of GH-RH (G. Halmos, A. V. Schally et al., Receptor 3, 87-97, 1993), hereby incorporated by reference. The assay is based on binding of labelled [His^1,Nle^27 ]hGH-RH(1-32)NH2 to rat anterior pituitary membrane homogenates. Iodinated derivatives of [His^1,Nle^27 ]hGH-RH(1-32)NH2 are prepared by the chloramine-T method (F. C. Greenwood et al., Biochemistry 89:114-123, 1963), hereby incorporated by reference. Pituitaries from male Sprague-Dawley rats (250-300 g) are used to prepare crude membranes. For saturation binding analyses, membrane homogenates are incubated with at least 6 concentrations of [His^1,^25 I-Tyr^10,Nle^27 ]hGH-RH(1-32)NH2, ranging from 0.005 to 0.35 nM in the presence or absence of excess unlabelled peptide (1 μM). The pellet is counted for radioactivity in a y-counter. The affinities of the antagonist peptides tested to rat pituitary GH-RH receptors are determined in competitive binding experiments. The final binding affinities are estimated by Ki (dissociation constant of the inhibitor-receptor complex) and are determined by the Ligand PC computer program of Munson and Rodbard as modified by McPherson. Relative affinities compared to [Ac-Tyr^1,D-Arg^2 ]hGH-RH(1-29)NH2, the Standard antagonist, are calculated as the ratio of Ki of the tested GH-RH antagonist to the Ki of the Standard antagonist.
# [3] = test system: hGH-RH(1-29)NH2 induced GH release; experiment: In vivo test: serum GH levels in rats pretreated with GH-RH antagonists before hGH-RH(1-29)NH2; design: species or system Sprague-Dawley rats
# Protocol: In Vivo Tests. Adult male Sprague-Dawley rats are anesthetized with pentobarbital (6 mg/100 g b.w., i.p.). Blood samples are taken from the jugular vein 30 min after the injection of pentobarbital. One group of 7 animals receives hGH-RH(1-29)NH2 as control. Other groups of rats are injected with [Ac-Tyr^1,D-Arg^2 ]hGH-RH(1-29)NH2 as Standard antagonist, or with one of the antagonist peptide 30 seconds prior to hGH-RH(1-29)NH2, which is administered at dose of 2-3 μg/kg b.w. Blood samples are taken from the jugular vein 5 and 15 min after the injection of antagonists. GH levels are measured by RIA. Potencies of the antagonists are calculated by the factorial analysis of Bliss and Marks with 95% confidence limits and are based on the doses of 100 and 400 μg/kg b.w. of the Standard antagonist and 20 and 80 μg/kg b.w. of the antagonists tested. Statistical significance was assessed by Duncan's new multiple range test.
# [4] = test system: GH release; details: cited from earlier work; for bioactivity (in words): compared with hGH-RH(1-29)NH2
# [5] = test system: GH release; details: cited from earlier work
compound,measurement,setting,value
"CC[C@H](C)[C@H](NC(=O)[C@H](C)NC(=O)[C@H](CC(=O)O)NC(=O)[C@@H](CCCNC(=N)N)NC(=O)[C@H](Cc1ccc(O)cc1)NC(C)=O)C(=O)N[C@@H](Cc1ccccc1)C(=O)N[C@H](C(=O)N[C@@H](CC(N)=O)C(=O)N[C@@H](CO)C(=O)N[C@@H](Cc1ccc(O)cc1)C(=O)N[C@@H](CCCNC(=N)N)C(=O)N[C@@H](CCCCN)C(=O)N[C@H](C(=O)N[C@@H](CC(C)C)C(=O)NCC(=O)N[C@@H](CCC(N)=O)C(=O)N[C@@H](CC(C)C)C(=O)N[C@@H](CO)C(=O)N[C@@H](C)C(=O)N[C@@H](CCCNC(=N)N)C(=O)N[C@@H](CCCCN)C(=O)N[C@@H](CC(C)C)C(=O)N[C@@H](CC(C)C)C(=O)N[C@@H](CCC(N)=O)C(=O)N[C@@H](CC(=O)O)C(=O)N[C@H](C(=O)N[C@@H](CCSC)C(=O)N[C@@H](CO)C(=O)N[C@@H](CCCNC(=N)N)C(N)=O)[C@@H](C)CC)C(C)C)[C@@H](C)O [Standard antagonist, [Ac-Tyr^1, D-Arg^2]hGH-RH(1-29)NH2, reference compound] (Ac-Y[dR]DAIFTNSYRKVLGQLSARKLLQDIMSR-NH2)",Inhibition of GH release (%) 0 min,[1]; dose 100 nM,62.1%
same,Inhibition of GH release (%) 30 min,[1]; dose 100 nM,2.5%
same,Inhibition of GH release (%) 60 min,[1]; dose 100 nM,19%
same,Ki,"[2]; competition with labelled [His1,Nle27]hGH-RH(1-32)NH2",3.22 ± 0.12 nM
same,R.A. (relative affinity compared to the Standard antagonist),[2],1
same,GH Levels,[3]; antagonist 100.0 μg/kg intravenously before GH-RH(1-29)NH2,738.3 ± 34.7 ng/mL
same,GH Levels,[3]; antagonist 400.0 μg/kg intravenously before GH-RH(1-29)NH2,439.7 ± 47.3 ng/mL
CCCC[C@H](NC(=O)[C@@H](NC(=O)[C@H](CC(=O)O)NC(=O)[C@H](CCC(N)=O)NC(=O)[C@H](CC(C)C)NC(=O)[C@H](CC(C)C)NC(=O)[C@H](CCCCN)NC(=O)[C@H](CCCNC(=N)N)NC(=O)[C@H](C)NC(=O)[C@H](CO)NC(=O)[C@H](CC(C)C)NC(=O)[C@H](CCC(N)=O)NC(=O)[C@H](CC)NC(=O)[C@H](CC(C)C)NC(=O)[C@@H](NC(=O)[C@H](CCCCN)NC(=O)[C@H](CCCNC(=N)N)NC(=O)[C@H](Cc1ccc(O)cc1)NC(=O)[C@H](CO)NC(=O)[C@H](CC(N)=O)NC(=O)[C@@H](NC(=O)[C@H](Cc1ccc(Cl)cc1)NC(=O)[C@@H](NC(=O)[C@H](C)NC(=O)[C@H](CC(=O)O)NC(=O)[C@@H](CCCNC(=N)N)NC(=O)[C@H](Cc1ccc(O)cc1)NC(=O)CCBr)[C@@H](C)CC)[C@@H](C)O)C(C)C)[C@@H](C)CC)C(=O)N[C@@H](CO)C(=O)NCCCCNC(=N)N [Peptide 20] (X1-Y[dR]DAI[Phe(4-Cl)]TNSYRKVL[Abu]QLSARKLLQDI[Nle]S-Agmatine; N-terminus assumed),Inhibition of GH release (%) 0 min,[1]; dose 10 nM,56.2%
same,Inhibition of GH release (%) 30 min,[1]; dose 10 nM,35.2%
same,Inhibition of GH release (%) 60 min,[1]; dose 10 nM,51.8%
same,Inhibition of GH release (%) 0 min,[1]; dose 30 nM,58%
same,Inhibition of GH release (%) 30 min,[1]; dose 30 nM,19.3%
same,Inhibition of GH release (%) 60 min,[1]; dose 30 nM,35.3%
same,Inhibition of GH release (%) 0 min,[1]; dose 100 nM,86.4%
same,Inhibition of GH release (%) 30 min,[1]; dose 100 nM,75%
same,Inhibition of GH release (%) 60 min,[1]; dose 100 nM,62.8%
same,R.A. (relative affinity compared to the Standard antagonist),[2],3.27
"GH-RH(1-28)NH2 (YADAIFTNSYRKVLGQLSARKLLQDIMS-NH2; UniProt P01286 32-59, looked up, fragment) [shorter GH-RH analogue]",bioactivity (in words),[4],substantially lower bioactivity
"GH-RH(1-27)NH2 (YADAIFTNSYRKVLGQLSARKLLQDIM-NH2; UniProt P01286 32-58, looked up, fragment) [shorter GH-RH analogue]",bioactivity (in words),[4],substantially lower bioactivity
[AcTyr^1 ]hGH-RH(1-29)NH2,in vivo potency over that of GH-RH,[5],ten fold or more
"[Ac-Tyr^1 ]GH-RH (Ac-YADAIFTNSYRKVLGQLSARKLLQDIMSRQQGESNQERGARARL; ends and bridges not checked; UniProt P01286 32-75, looked up)",GH releasing activity relative to GH-RH,[4],2-3%
"hGH-RH(2-44) (ADAIFTNSYRKVLGQLSARKLLQDIMSRQQGESNQERGARARL; ends and bridges not checked; UniProt P01286 33-75, looked up, fragment) [GH-RH without its N-terminus residue]",GH releasing activity relative to GH-RH,[4],0.1%
[D-Tyr^1 ]GH-RH,GH releasing activity relative to GH-RH,[4],2-3%
